Target: T1, ATM (Homo sapiens, UniProt Q13315)
T1 construct: detecting phosphorylation of Chk2 in a human non-small cell lung cancer cell line NCI-H460 (ATCC company); host or cells: NCI-H460 human non-small cell lung cancer cells
Assay: ATM inhibition test (phosphorylation of Chk2 generated by ionizing radiation, AlphaScreen SureFire)
Type: cell-based
Settings: ATM inhibitory activity, phosphorylated Chk2 in NCI-H460 cells, ionizing radiation 8Gy, 1 hour after test compound treatment
Procedure: ATM inhibitory effects of a test compound were measured by detecting phosphorylation of Chk2 in a human non-small cell lung cancer cell line NCI-H460 (ATCC company). The level of phosphorylated Chk2 generated by an ionizing radiation was measured using AlphaScreen SureFire (TGR Biosciences).
The cells were seeded by 40000 cells per well in 96-well CellBIND® plates (Corning International Inc.), and incubated at 37° C. overnight in 5% CO2. […] 1 hour after a test compound treatment, half of the plates were irradiated with ionizing radiation 8Gy (Faxitron Bioptics, LLC, RX-650 type). The plates irradiated with ionizing radiation and the plates not being irradiated with ionizing radiation were incubated at 37° C. for 1 hour in 5% CO2. […] Subsequent operations were performed according to the instruction book of AlphaScreen SureFire. […] The inhibition ratio was calculated by the following equation. Inhibition ratio (%)=((signal of drug untreated wells in the plates irradiated with ionizing radiation−signal of drug treated wells in the plates irradiated with ionizing radiation)/(signal of drug untreated wells in the plates irradiated with ionizing radiation−signal of drug untreated wells in the plates not being irradiated with ionizing radiation))×100

T1 sequence (Q13315 whole entry): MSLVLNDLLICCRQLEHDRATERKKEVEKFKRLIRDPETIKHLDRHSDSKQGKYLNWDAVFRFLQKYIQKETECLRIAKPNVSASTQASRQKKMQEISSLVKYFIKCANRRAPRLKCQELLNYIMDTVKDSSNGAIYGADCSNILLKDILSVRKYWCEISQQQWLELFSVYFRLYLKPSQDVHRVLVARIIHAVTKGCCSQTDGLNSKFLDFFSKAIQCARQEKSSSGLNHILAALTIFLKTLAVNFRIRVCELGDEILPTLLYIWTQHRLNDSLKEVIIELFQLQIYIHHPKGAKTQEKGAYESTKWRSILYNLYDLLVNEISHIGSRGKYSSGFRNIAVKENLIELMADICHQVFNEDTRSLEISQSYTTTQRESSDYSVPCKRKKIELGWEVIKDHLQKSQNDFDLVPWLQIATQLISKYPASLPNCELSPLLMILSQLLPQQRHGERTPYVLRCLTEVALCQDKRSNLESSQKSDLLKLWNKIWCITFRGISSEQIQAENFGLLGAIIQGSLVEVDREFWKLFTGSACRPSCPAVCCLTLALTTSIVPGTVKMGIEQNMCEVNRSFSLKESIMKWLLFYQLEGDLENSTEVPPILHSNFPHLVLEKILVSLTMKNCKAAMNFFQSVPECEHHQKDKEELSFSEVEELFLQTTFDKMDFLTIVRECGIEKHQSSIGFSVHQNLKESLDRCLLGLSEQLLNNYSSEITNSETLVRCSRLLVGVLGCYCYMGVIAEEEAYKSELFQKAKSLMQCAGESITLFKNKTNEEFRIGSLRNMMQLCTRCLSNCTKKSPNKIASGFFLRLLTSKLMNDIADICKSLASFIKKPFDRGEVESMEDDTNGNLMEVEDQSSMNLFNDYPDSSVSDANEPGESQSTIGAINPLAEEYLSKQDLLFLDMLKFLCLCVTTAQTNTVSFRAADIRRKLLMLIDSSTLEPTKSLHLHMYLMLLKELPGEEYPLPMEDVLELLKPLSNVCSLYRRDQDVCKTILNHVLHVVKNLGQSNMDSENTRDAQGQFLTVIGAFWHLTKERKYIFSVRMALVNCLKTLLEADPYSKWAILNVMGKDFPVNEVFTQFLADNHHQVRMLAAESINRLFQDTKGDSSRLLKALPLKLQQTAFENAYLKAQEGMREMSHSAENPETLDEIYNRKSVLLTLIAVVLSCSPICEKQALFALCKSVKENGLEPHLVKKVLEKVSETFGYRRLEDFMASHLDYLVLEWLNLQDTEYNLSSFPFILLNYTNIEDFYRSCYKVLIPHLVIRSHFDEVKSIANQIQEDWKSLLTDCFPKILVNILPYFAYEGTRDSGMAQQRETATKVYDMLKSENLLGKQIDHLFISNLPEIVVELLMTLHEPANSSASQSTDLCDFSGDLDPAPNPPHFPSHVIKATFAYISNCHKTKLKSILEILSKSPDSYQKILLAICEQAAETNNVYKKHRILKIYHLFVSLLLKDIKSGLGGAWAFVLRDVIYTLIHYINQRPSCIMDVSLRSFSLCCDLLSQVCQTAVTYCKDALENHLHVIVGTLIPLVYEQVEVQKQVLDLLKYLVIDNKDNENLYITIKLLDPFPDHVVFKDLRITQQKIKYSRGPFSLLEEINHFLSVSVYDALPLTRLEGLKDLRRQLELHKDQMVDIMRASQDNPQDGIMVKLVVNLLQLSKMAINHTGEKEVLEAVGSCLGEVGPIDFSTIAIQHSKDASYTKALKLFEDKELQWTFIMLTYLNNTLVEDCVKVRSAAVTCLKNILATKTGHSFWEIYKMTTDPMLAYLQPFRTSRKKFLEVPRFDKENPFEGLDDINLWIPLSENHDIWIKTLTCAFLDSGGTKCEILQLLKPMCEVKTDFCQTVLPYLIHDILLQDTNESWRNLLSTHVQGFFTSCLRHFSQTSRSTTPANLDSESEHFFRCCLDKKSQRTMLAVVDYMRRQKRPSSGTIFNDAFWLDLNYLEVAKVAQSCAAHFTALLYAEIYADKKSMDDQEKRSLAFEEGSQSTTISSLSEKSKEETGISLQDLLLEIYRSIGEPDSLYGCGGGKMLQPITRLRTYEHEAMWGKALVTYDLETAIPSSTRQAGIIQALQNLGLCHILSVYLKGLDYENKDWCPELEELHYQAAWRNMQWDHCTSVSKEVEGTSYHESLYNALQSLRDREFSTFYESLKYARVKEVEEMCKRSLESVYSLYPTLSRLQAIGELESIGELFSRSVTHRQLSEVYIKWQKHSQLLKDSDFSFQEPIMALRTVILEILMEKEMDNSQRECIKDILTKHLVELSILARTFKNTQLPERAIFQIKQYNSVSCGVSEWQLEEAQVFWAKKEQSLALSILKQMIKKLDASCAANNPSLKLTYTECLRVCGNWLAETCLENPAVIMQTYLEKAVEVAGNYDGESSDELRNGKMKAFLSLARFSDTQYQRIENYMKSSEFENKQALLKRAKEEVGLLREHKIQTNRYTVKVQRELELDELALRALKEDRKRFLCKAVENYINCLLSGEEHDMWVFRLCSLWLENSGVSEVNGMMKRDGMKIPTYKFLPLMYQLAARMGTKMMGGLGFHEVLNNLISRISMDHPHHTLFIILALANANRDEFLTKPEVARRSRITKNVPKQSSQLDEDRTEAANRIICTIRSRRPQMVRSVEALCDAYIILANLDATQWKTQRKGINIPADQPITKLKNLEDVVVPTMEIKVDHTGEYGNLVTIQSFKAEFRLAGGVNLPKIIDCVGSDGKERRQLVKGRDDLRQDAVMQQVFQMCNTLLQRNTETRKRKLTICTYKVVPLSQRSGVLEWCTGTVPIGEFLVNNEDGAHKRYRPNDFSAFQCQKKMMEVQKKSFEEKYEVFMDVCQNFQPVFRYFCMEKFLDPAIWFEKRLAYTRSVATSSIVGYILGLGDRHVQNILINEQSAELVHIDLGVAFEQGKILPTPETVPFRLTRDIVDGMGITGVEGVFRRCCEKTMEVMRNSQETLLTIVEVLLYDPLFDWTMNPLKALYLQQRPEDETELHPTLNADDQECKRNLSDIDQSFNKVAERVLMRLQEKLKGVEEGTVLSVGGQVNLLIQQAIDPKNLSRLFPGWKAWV

Compound | IC50
O=c1cc(N2CCOCC2)cc(-c2cccc3c2Sc2ccc(NCc4cccc(N5CCOCC5)n4)cc2S3)[nH]1 [Example 1-12-32, 4-Morpholino-6-(7-(((6-morpholinopyridin-2-yl)methyl)amino)thianthren-1 yl)pyridin-2(1H)-one] | 100 to 500 nM

Same assay, conditions: phosphorylated Chk2 in NCI-H460 cells, ionizing radiation 8Gy, 1 hour after test compound treatment; read-out: ATM inhibitory activity

IC50 | Compound
500 to 2000 nM | Nc1ncccc1CNc1ccc2c(c1)Sc1cccc(-c3cc(N4CCOCC4)cc(=O)[nH]3)c1O2 [Example 4-8-20, 6-(8-(((2-Aminopyridin-3-yl)methyl)amino)phenoxathiin-4-yl)-4-morpholino pyridin-2(1H)-one]
< 100 nM | O=c1cc(N2CCOCC2)cc(-c2cccc3c2Sc2ccc(NCCCN4CCOCC4)cc2S3)[nH]1 [Example 1-9-3, 4-Morpholino-6-(7-((3-morpholinopropyl)amino)thianthren-1-yl)pyridin-2(1H)-one]
100 to 500 nM | O=c1cc(N2CCOCC2)cc(-c2cccc3c2Oc2ccc(NC4CCN(Cc5cccs5)CC4)cc2C3)[nH]1 [Example 2-28-25, 4-Morpholino-6-(7-((1-(thiophen-2-ylmethyl)piperidin-4-yl)amino)-9H-xanthen-4-yl)pyridin-2(1H)-one]
100 to 500 nM | CC(Nc1ccc2c(c1)Cc1cccc(-c3cc(N4CCOCC4)cc(=O)[nH]3)c1O2)c1cccc(F)n1 (single isomer, unassigned) [Example 2-14-87-2, 6-(7-((1-(6-fluoropyridin-2-yl)ethyl)amino)-9H-xanthen-4-yl)-4-morpholinopyridin-2(1H)-one]
500 to 2000 nM | CC(Nc1ccc2c(c1)Cc1cccc(-c3cc(N4CCOCC4)cc(=O)[nH]3)c1O2)c1cccnc1 (single isomer, unassigned) [Example 2-36-1, 4-morpholino-6-(7-((1-(pyridin-3-yl)ethyl)amino)-9H-xanthen-4-yl)pyridin-2(1H)-one]
100 to 500 nM | Cc1ccc(C2(Nc3ccc4c(c3)Sc3cccc(-c5cc(N6CCOCC6)cc(=O)[nH]5)c3S4)CCC2)nc1 [Example 1-50-3, 6-(7-((1-(5-Methylpyridin-2-yl)cyclobutyl)amino)thianthren-1-yl)-4-morpholino pyridin-2(1H)-one]
500 to 2000 nM | COc1ccccc1CCN1CCC(Nc2ccc3c(c2)Cc2cccc(-c4cc(N5CCOCC5)cc(=O)[nH]4)c2O3)CC1 [Example 2-30-10, 6-(7-((1-(2-Methoxyphenethyl)piperidin-4-yl)amino)-9H-xanthen-4-yl)-4-morpholino pyridin-2(1H)-one]
100 to 500 nM | O=c1cc(N2CCOCC2)cc(-c2cccc3c2Sc2ccc(NCc4ncccn4)cc2C3)[nH]1 [Example 3-8-6, 4-Morpholino-6-(7-((pyrimidin-2-ylmethyl)amino)-9H-thioxanthen-4-yl) pyridin-2(1H)-one]
100 to 500 nM | CC(Nc1ccc2c(c1)Cc1cccc(-c3cc(N4CCOCC4)cc(=O)[nH]3)c1O2)c1cncc(F)c1 (stereo not shown) [Example 2-14-29, 6-(7-((1-(5-Fluoropyridin-3-yl)ethyl)amino)-9H-xanthan-4-yl)-4-morpholino pyridin-2(1H)-one]
100 to 500 nM | CNc1ncccc1CNc1ccc2c(c1)Sc1cccc(-c3cc(N4CCOCC4)cc(=O)[nH]3)c1S2 [Example 1-12-24, 6-(7-(((2-(Methylamino)pyridin-3-yl)methyl)amino)thianthren-1-yl)-4-morpholino pyridin-2(1H)-one]
100 to 500 nM | COCCNCC(Nc1ccc2c(c1)Sc1cccc(-c3cc(N4CCOCC4)cc(=O)[nH]3)c1S2)c1cccc(C)n1 (stereo not shown) [Example 1-34-2, 6-(7-((2-((2-Methoxyethyl)amino)-1-(6-methylpyridin-2-yl)ethyl)amino)thianthren-1-yl)-4-morpholino pyridin-2 (1H)-one]
100 to 500 nM | O=c1cc(N2CCOCC2)cc(-c2cccc3c2Sc2ccc(NC4CCCC4N4CCOCC4)cc2S3)[nH]1 (single isomer, unassigned) [Example 1-16-1-3, 4-morpholino-6-(7-((2-morpholinocyclopentyl)amino)thianthren-1-yl)pyridin-2(1H)-one]

Source: patent US9586951B2 (FUJIFILM Corporation, priority 2013, dated 2017)
